Assay results: the supplement of paper PMC10307832

Compound: CCN(CCO)CCCC(C)Nc1ccnc2cc(Cl)ccc12 [Hydroxychloroquine] + CC(=O)Nc1cccc(-n2c(=O)n(C3CC3)c(=O)c3c(Nc4ccc(I)cc4F)n(C)c(=O)c(C)c32)c1 [Trametinib] (partner 0.02 µM)
Experiment: relative viability (nuclei count vs DMSO), 5 days (fraction); higher = more cells survive
Procedure, shortened: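 Medians of duplicate plates are given as relative viability. That measure is the nuclei count in treated wells divided by the count in vehicle wells. Counts were taken on 4× images of lung cancer cell lines in 1536-well plates, 5 days after pin-tool dosing the day after seeding with one drug alone or a fixed anchor-drug dose plus five library-drug doses (not always all listed) in √10 steps.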

| Cell Line | relative viability (first compound 0.5 µM) | relative viability (first compound 1.581 µM) | relative viability (first compound 5 µM) | relative viability (first compound 15.81 µM) | relative viability (first compound 50 µM) |
| --- | --- | --- | --- | --- | --- |
| 201T | 0.727 | 0.777 | 0.728 | 0.733 | 0.724 |
| A-427 | 0.752 | 0.639 | 0.697 | 0.715 | 0.675 |
| BEN | 0.951 | 0.881 | 0.954 | 1.12 | 1.03 |
| CAL-12T | 0.268 | 0.265 | 0.326 | 0.338 | 0.32 |
| COR-L23 | 0.602 | 0.582 | 0.616 | 0.767 | 0.712 |
| COR-L 105 | 0.472 | 0.393 | 0.44 | 0.384 | 0.391 |
| ChaGo-K-1 | 0.962 | 0.916 | 0.865 | 0.853 | 0.891 |
| EKVX | 0.348 | 0.302 | 0.316 | 0.637 | 0.352 |
| EMC-BAC-2 | 0.917 | 0.694 | 0.85 | 0.784 | 0.753 |
| EPLC-272H | 0.272 | 0.311 | 0.273 | 0.271 | 0.298 |
| H3255 | 0.695 | 0.614 | 0.546 | 0.854 | 0.665 |
| HARA | 0.725 | 0.975 | 0.88 | 0.704 | 0.613 |
| HCC-15 | 0.4 | 0.387 | 0.351 | 0.38 | 0.311 |
| HCC-44 | 1.07 | 1.04 | 1.14 | 1.08 | 1.1 |
| HCC-78 | 0.823 | 0.834 | 0.878 | 0.752 | 0.904 |
| HCC-366 | 0.334 | 0.323 | 0.355 | 0.282 | 0.458 |
| HCC-827 | 0.506 | 0.479 | 0.488 | 0.563 | 0.531 |
| HOP-62 | 0.37 | 0.387 | 0.386 | 0.397 | 0.341 |
| LC-2-ad | 0.925 | 0.98 | 0.941 | 0.865 | 0.924 |
| LCLC-97TM1 | 0.208 | 0.185 | 0.196 | 0.23 | 0.16 |
| LCLC-103H | 0.684 | 0.642 | 0.678 | 0.719 | 0.695 |
| LK-2 | 0.864 | 0.599 | 0.707 | 0.876 | 1.01 |
| LOU-NH91 | 0.795 | 0.69 | 0.799 | 0.828 | 0.848 |
| LU99A | 0.626 | 0.505 | 0.542 | 0.527 | 0.577 |

| Cell Line | relative viability (first compound 0.5 µM) | relative viability (first compound 1.581 µM) | relative viability (first compound 5 µM) | relative viability (first compound 15.81 µM) | relative viability (first compound 50 µM) |
| --- | --- | --- | --- | --- | --- |
| LXF-289 | 0.659 | 0.689 | 0.674 | 0.72 | 0.759 |
| NCI-H23 | 0.387 | 0.387 | 0.364 | 0.36 | 0.327 |
| NCI-H322M | 0.497 | 0.6 | 0.511 | 0.511 | 0.537 |
| NCI-H358 | 0.128 | 0.122 | 0.132 | 0.131 | 0.127 |
| NCI-H441 | 0.467 | 0.39 | 0.386 | 0.349 | 0.462 |
| NCI-H460 | 0.203 | 0.11 | 0.119 | 0.187 | 0.13 |
| NCI-H520 | 0.692 | 0.658 | 0.589 | 0.628 | 0.844 |
| NCI-H596 | 0.652 | 0.926 | 0.769 | 0.797 | 0.795 |
| NCI-H647 | 0.474 | 0.494 | 0.438 | 0.497 | 0.519 |
| NCI-H650 | 0.877 | 0.876 | 0.965 | 1.03 | 0.969 |
| NCI-H661 | 0.549 | 0.522 | 0.593 | 0.596 | 0.577 |
| NCI-H727 | 0.369 | 0.361 | 0.396 | 0.405 | 0.382 |
| NCI-H838 | 0.566 | 0.458 | 0.552 | 0.519 | 0.606 |
| NCI-H1355 | 0.374 | 0.413 | 0.435 | 0.376 | 0.388 |
| NCI-H1395 | 1.09 | 0.972 | 0.862 | 1.02 | 0.949 |
| NCI-H1437 | 0.543 | 0.579 | 0.515 | 0.459 | 0.544 |
| NCI-H1648 | 0.499 | 0.434 | 0.437 | 0.57 | 0.414 |
| NCI-H1650 | 0.556 | 0.681 | 0.515 | 0.591 | 0.494 |
| NCI-H1651 | 0.832 | 0.894 | 0.834 | 0.864 | 0.879 |
| NCI-H1666 | 0.789 | 0.786 | 0.848 | 0.812 | 0.794 |
| NCI-H1734 | 0.639 | 0.604 | 0.645 | 0.668 | 0.699 |
| NCI-H1755 | 0.743 | 0.729 | 0.776 | 0.726 | 0.732 |
| NCI-H1792 | 0.496 | 0.464 | 0.474 | 0.387 | 0.378 |
| NCI-H1793 | 0.405 | 0.463 | 0.475 | 0.416 | 0.344 |

| Cell Line | relative viability (first compound 0.5 µM) | relative viability (first compound 1.581 µM) | relative viability (first compound 5 µM) | relative viability (first compound 15.81 µM) | relative viability (first compound 50 µM) |
| --- | --- | --- | --- | --- | --- |
| NCI-H1915 | 0.328 | 0.251 | 0.325 | 0.311 | 0.306 |
| NCI-H1944 | 0.398 | 0.354 | 0.39 | 0.403 | 0.41 |
| NCI-H1975 | 0.36 | 0.322 | 0.341 | 0.38 | 0.321 |
| NCI-H1993 | 0.525 | 0.589 | 0.597 | 0.551 | 0.469 |
| NCI-H2009 | 0.308 | 0.247 | 0.328 | 0.272 | 0.259 |
| NCI-H2023 | 0.529 | 0.492 | 0.504 | 0.53 | 0.503 |
| NCI-H2085 | 0.7 | 0.527 | 0.619 | 0.518 | 0.53 |
| NCI-H2087 | 0.202 | 0.234 | 0.187 | 0.193 | 0.238 |
| NCI-H2126 | 0.5 | 0.516 | 0.603 | 0.544 | 0.55 |
| NCI-H2170 | 0.867 | 0.852 | 0.933 | 1.05 | 0.896 |
| NCI-H2228 | 0.322 | 0.421 | 0.654 | 0.584 | 0.365 |
| NCI-H2342 | 0.868 | 0.923 | 0.908 | 0.804 | 0.881 |
| NCI-H2347 | 0.293 | 0.248 | 0.272 | 0.281 | 0.325 |
| NCI-H2405 | 0.668 | 0.677 | 0.585 | 0.62 | 0.615 |
| NCI-H3122 | 0.19 | 0.215 | 0.2 | 0.319 | 0.232 |
| PC-3 [JPC-3] | 0.694 | 0.69 | 0.668 | 0.723 | 0.681 |
| PC-14 | 0.708 | 0.846 | 0.667 | 0.798 | 0.687 |
| RERF-LC-KJ | 0.858 | 0.826 | 0.825 | 0.83 | 0.886 |
| SK-LU-1 | 0.454 | 0.374 | 0.508 | 0.462 | 0.404 |
| SK-MES-1 | 0.558 | 0.52 | 0.538 | 0.559 | 0.553 |
| SW 1573 | 0.617 | 0.595 | 0.55 | 0.625 | 0.499 |
| UMC-11 | 0.642 | 0.431 | 0.762 | 0.669 | 0.741 |
